Key:
[1] = Inhibition of Death associated protein kinase
[2] = Displacement of ATP from Death associated protein kinase
[3] = target: Protein kinase C (PKC); assay: Inhibition of Protein kinase C; format: protein assay
[4] = target: cAMP-dependent protein kinase (PKA) (Homo sapiens, UniProt P22694+P17612+P22612); assay: Inhibition of Protein kinase A; format: protein assay
[5] = species on record: Rattus norvegicus; assay: Brain hemisphere weight loss 6 hr after HI injury in rats
[6] = test system: Rattus norvegicus; assay: Brain hemisphere weight loss after 5 mg/kg ip administration prior to HI injury in rats; details: route intraperitoneal
[7] = target: CaM kinase II (Homo sapiens, UniProt Q13557+Q13555+Q13554+Q9UQM7); assay: Inhibition of Calcium/calmodulin-dependent protein kinase type II; format: protein assay

N=c1cc2c(nn1CCCCCCCCCCC(=O)Nc1ccc(-c3ccccc3)nn1)-c1ccccc1CC2
IC50 [1]: 13 µM
Ki [1]: 15 µM
Ki [2]: 20 µM
IC50 [3]: > 100 µM
IC50 [4]: > 100 µM
Weight loss [5]: 21.6%
Weight loss [6]: 17.3%

N=c1ccc(-c2ccccc2)nn1CCCCCCCCCCC(=O)Nc1ccc(-c2ccccc2)nn1
IC50 [1]: 22 µM
IC50 [7]: > 100 µM
IC50 [3]: 3 µM
IC50 [4]: > 100 µM

Cc1ccc(=N)n(CCCCCCCCCCC(=O)Nc2ccc(-c3ccccc3)nn2)n1
IC50 [1]: > 100 µM
IC50 [7]: > 100 µM
IC50 [3]: 31 µM
IC50 [4]: > 100 µM

Cc1cc(-c2ccccc2)nnc1NCCN1CCOCC1 [MINAPRINE]
IC50 [1]: > 100 µM
IC50 [7]: > 100 µM
IC50 [3]: > 100 µM
IC50 [4]: > 100 µM

Reference: ChEMBL document CHEMBL1136284, “An aminopyridazine-based inhibitor of a pro-apoptotic protein kinase attenuates hypoxia-ischemia induced acute brain injury” (Bioorg Med Chem Lett, 2003)
